{"source": "paper PMC10391610", "about": "“Survivin prevents the polycomb repressor complex 2 from methylating histone 3 lysine 27” (iScience, 2023)", "key": {"[U-15N]-survivin": {"target": "T1, [U-15N]-survivin (Homo sapiens, UniProt O15392)", "T1 construct": "transferred to the survivin1-142 construct used in the present study; His8 tag (pHIS8 vector, thrombin-cleavable); made in house; host or cells: E. coli BL21(DE3) star, M9 medium with 15NH4Cl", "T1 sequence (O15392 whole entry)": "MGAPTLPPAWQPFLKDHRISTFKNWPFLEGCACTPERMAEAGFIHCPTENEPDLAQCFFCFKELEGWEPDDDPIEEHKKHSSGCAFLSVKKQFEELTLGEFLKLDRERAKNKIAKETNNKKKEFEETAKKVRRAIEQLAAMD", "assay": "NMR titration of [U-15N]-survivin with PRC2-derived peptides", "format": "binding", "procedure": "Uniformly [U] labeled [U-^15N] survivin was produced in H2O-based M9 medium[69] containing ^15NH4Cl as the sole nitrogen and in case of or [U-^15N,^13C] survivin D-(^13C)-glucose was additionally added as the sole carbon source, respectively (Sigma-Aldrich). Expression was induced with 0.5 mM IPTG and continued for 20–22 h at 15°C. Cell harvesting and subsequent purification followed the same protocol as for unlabeled survivin.\nNMR measurements were performed on Bruker (Fällanden, Switzerland) AvanceIII 800 MHz spectrometers running Topspin 3.5 or 3.6, respectively, equipped with cryogenically cooled triple resonance probes. All NMR experiments were performed in NMR buffer (50 mM Tris, 150 mM NaCl, 1 mM DTT, pH 7.5) and at 298 K. The sequence-specific backbone assignment of survivin1-117 was taken from previously published assignment,[50] and transferred to the survivin1-142 construct used in the present study. Existing resonance assignments were confirmed, and additional resonances were assigned in a sequence-specific manner by the following experiments: [^1H,^15N]-TROSY HSQC,[70] BEST-TROSY-type HNCA and HNCO experiments.[71]\nThe peptides were synthetized and purified to 95% by Biomatik. The peptides were titrated into ^15N labelled survivin (0.3 mM). Standard 2D [^15N,^1H]-SOFAST-HMQC[72] experiments were recorded with inter-scan delays of 200 ms and 1025 x 256 complex points for the ^1H and ^15N dimensions, respectively, for the titrations of the different peptides with [U-^15N] survivin.\nFor the global analysis, the NMR signal strength was quantified by summing the 200 highest values in each 2D NMR spectrum to ensure that all peaks corresponding to the different amino acid residues in survivin are potentially covered. The titration curve was modelled using a Bayesian machine learning approach using the python library pymc3.[66] The logistic function was chosen due to computational convenience. The most important parameter of this function was coined “critical peptide concentration (cpc)” and its logarithm was modelled using a uniform a priori distribution between −10 and 1. p(log10cpc|lower=−10,upper=1)=1/upper−lower\nThe modelling errors related to the choice of function affect the analysis of different peptides similarly. Therefore, the relative magnitude of cpc in comparison is more reliable than the absolute magnitude of cpc itself. The concentration values were converted to dimensionless quantities by dividing with 1 mM and the NMR signal intensity was normalized for the concentration range studied.\nA deterministic sigmoid (logistic) function was used to model signal decay as a function of peptide concentration. Additional a priori assumptions of the function parameters were the following: p(k|lower=−10,upper=10)=1/upper−lower p(L|lower=−3,upper=3)=1/upper−lower p(b|lower=−10,upper=10)=1/upper−lower\n1000 posterior samples were collected in four parallel chains using the No-U-Turn sampling algorithm (NUTS) after 2000 tuning steps/chain.[83] The default sampling parameters were used except for “target accept” parameter, which was increased to 0.95. For the final analysis the 1000 samples from the four chains were merged to yield 4000 samples."}, "survivin": {"target": "T2, survivin (Homo sapiens, UniProt O15392)", "T2 construct": "transferred to the survivin1-142 construct used in the present study; His8 tag (pHIS8 vector, thrombin-cleavable); made in house; host or cells: E. coli BL21(DE3) star", "T2 sequence (O15392 whole entry)": "as above", "assay": "Biolayer interferometry, immobilized EZH2 peptide, survivin as analyte", "format": "binding", "procedure": "EZH2_178-211 peptide from previous peptide microarray experiments were used as immobilized ligands using amine reactive second-generation biosensor (AR2G, Fortebio, Fremont, CA, USA). Ethanolamine was used to quench unbound AR2G surface to prevent non-specific interactions. The biosensor was incubated in MQ water for 15 minutes before use in the Octet instrument (Fortebio, Fremont, CA, USA) with the following settings: equilibration in water for 60 s and 1000 rpm shaking, activation in EDC/s-NHS for 300 s at 1000 rpm, peptide immobilization in immobilization buffer pH 6.0 (Fortebio) for 900 s and 1000 rpm (50 μM for the peptide), quenching with 1 M ethanolamine for 300 s and 1000 rpm, baseline measurement in survivin SEC buffer for 600 s and 1000 rpm, association with survivin (100 nM, 33.3 nM, 11.1 nM, and 3.7 nM concentrations) as the experiment analyte for 600 s and 1000 rpm, and dissociation step in survivin SEC buffer for 1200 s and 1000 rpm. The assay was performed at 30°C. The reference wells and reference biosensors were subtracted.\nΔλ(t) values were converted to dimensionless quantities by dividing the wavelength shifts with 1 nm prior to the analysis. To develop the model, we tentatively assumed Langmuir’s 1:1 model.[85] The kinetic modelling was performed with the pymc3 python package[66] using a Bayesian model: p(KD,app|lower=10^−15,upper=10^−3)=1/upper−lower p(k−1|lower=10^−20,upper=10)=1/upper−lower k1=k−1/KD,app p(A|lower=10^−6,upper=10)=1/upper−lower p(ε|lower=10^−6,upper=1)=1/upper−lower p(Δλ(0)|μ=⟨Δλi⟩,σ=1/10∑(Δλi−⟨Δλi⟩)^2/n)=1/2πσe^−1/2σ(Δλ(t)−μ)^2;Δλ(0)∈[10^−20,+∞]\nThe association and dissociation phases were modelled simultaneously, and the probability of wavelength shift during association phase was modeled as: p(Δλ(t)|μ=Ac/KD,app+c(1−e^−(k1c+k−1)t),σ=ε)=1/2πσe^−1/2σ(Δλ(t)−μ)^2\nThe probability of wavelength shift during the dissociation phase was modelled as: p(Δλ(t)|μ=Δλ(0)e^−k−1t,σ=ε)=1/2πσe^−1/2σ(Δλ(t)−μ)^2, where A and k1 are the amplitude and rate constant of the exponential association process, respectively. The concentration of the analyte is c and KD,app is the apparent dissociation constant. The dissociation rate constant is marked with k-1. ε represents the standard deviation of Δλ(t) . The total amplitude of wavelength shift is the wavelength shift at the beginning of the dissociation phase ( Δλ(0) ). Its prior distribution is modeled by a truncated normal distribution with parameters based on an empirical Bayes estimate of the starting observations. The data points in the interval 0 to 1 s are represented by the index i. The residual plots from the Bayesian model used in the BLI experiment with peptide EZH2_172-211 and survivin are shown in Figure S6."}}}
{"sequence": "VELVNALGQYNDDDDDDDGD DPEEREEKQKDLEDHRDDKE [EZH2_172-211, PRC2-derived peptide, EZH2 residues 172–211, synthesized by Biomatik]", "values": [{"measurement": "critical peptide concentration", "setting": "[U-15N]-survivin; 300 μM survivin (monomer), pH 7.5, 298 K", "value": 2.1, "unit": "µM"}, {"measurement": "<L>", "setting": "[U-15N]-survivin; logistic function parameter L, posterior mean (Table S10)", "value": 0.68}, {"measurement": "<b>", "setting": "[U-15N]-survivin; logistic function parameter b, posterior mean (Table S10)", "value": 0.32}, {"measurement": "<k>", "setting": "[U-15N]-survivin; logistic function parameter k, posterior mean (Table S10)", "value": -1.04}, {"measurement": "binding strength from slow exchange regime (in words)", "setting": "[U-15N]-survivin; new resonances at high peptide concentrations, 298 K", "value": "strong binding in the low nanomolar range or below"}, {"measurement": "BLI interaction (in words)", "setting": "survivin; EZH2_172-211-coated sensors, survivin 100, 33 and 11 nM", "value": "Survivin interacted with EZH2_172-211-coated sensors at concentrations of 100, 33, and 11 nM"}, {"measurement": "apparent dissociation constant (in words)", "setting": "survivin; summary of posterior parameters, when the apparent dissociation constant is well defined", "value": "nanomolar interaction"}, {"measurement": "A (amplitude of association)", "setting": "survivin; survivin 3.7 nM, posterior mean ± SD", "value": "0.18 ± 0.21", "unit": "nm"}, {"measurement": "A (amplitude of association)", "setting": "survivin; survivin 33 nM, posterior mean, SD 1.8×10-4", "value": 0.11, "unit": "nm"}, {"measurement": "A (amplitude of association)", "setting": "survivin; survivin 100 nM, posterior mean, SD 1.1×10-4", "value": 0.23, "unit": "nm"}]}
